Experimental data taken from PubChem BioAssay (NCI).
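Where inhibition never reached the appropriate level, the endpoint shown equals the highest concentration tested. Otherwise, values were interpolated linearly from a five-concentration, 48-hour dose response in 96-well plates. The concentration for 50% growth inhibition is given as GI50. Definition used: TGI = concentration required for complete inhibition of growth.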

Assays:
Assay in all cases: NCI tumour cell line growth inhibition, 48 h
EKVX NSCLC = test system: EKVX NSCLC
NCI-H23 lung = test system: NCI-H23 lung
LOX IMVI melanoma = test system: LOX IMVI melanoma
SK-OV-3 ovarian = test system: SK-OV-3 ovarian
SF-539 CNS = test system: SF-539 CNS
RXF 393 renal = test system: RXF 393 renal
CCRF-CEM leukemia = test system: CCRF-CEM leukemia
NCI-H226 lung = test system: NCI-H226 lung
SN12C renal = test system: SN12C renal
ACHN renal = test system: ACHN renal
HCT-15 colon = test system: HCT-15 colon
MCF7 breast = test system: MCF7 breast
TK-10 renal = test system: TK-10 renal
HOP-92 NSCLC = test system: HOP-92 NSCLC
RPMI-8226 leukemia = test system: RPMI-8226 leukemia
SNB-19 CNS = test system: SNB-19 CNS
PC-3 prostate = test system: PC-3 prostate
SK-MEL-28 melanoma = test system: SK-MEL-28 melanoma
NCI-H522 lung = test system: NCI-H522 lung
KM12 colon = test system: KM12 colon
MDA-MB-435 = test system: MDA-MB-435
MALME-3M melanoma = test system: MALME-3M melanoma
IGROV1 ovarian = test system: IGROV1 ovarian
T-47D breast = test system: T-47D breast
786-0 renal = test system: 786-0 renal
DU-145 prostate = test system: DU-145 prostate
SR leukemia = test system: SR leukemia
BT-549 breast = test system: BT-549 breast
MOLT-4 leukemia = test system: MOLT-4 leukemia
COLO 205 colon = test system: COLO 205 colon
HOP-62 NSCLC = test system: HOP-62 NSCLC
HL-60(TB) leukemia = test system: HL-60(TB) leukemia
NCI/ADR-RES ovarian = test system: NCI/ADR-RES ovarian
SNB-75 CNS = test system: SNB-75 CNS
UO-31 renal = test system: UO-31 renal
SF-295 CNS = test system: SF-295 CNS
HCC-2998 colon = test system: HCC-2998 colon
UACC-257 melanoma = test system: UACC-257 melanoma
SK-MEL-5 melanoma = test system: SK-MEL-5 melanoma
K-562 leukemia = test system: K-562 leukemia
A549 NSCLC = test system: A549 NSCLC
CAKI-1 renal = test system: CAKI-1 renal
UACC-62 melanoma = test system: UACC-62 melanoma
SF-268 CNS = test system: SF-268 CNS
NCI-H460 lung = test system: NCI-H460 lung
OVCAR-5 ovarian = test system: OVCAR-5 ovarian
HS 578T breast = test system: HS 578T breast
OVCAR-8 ovarian = test system: OVCAR-8 ovarian
OVCAR-4 ovarian = test system: OVCAR-4 ovarian
A498 renal = test system: A498 renal
SW-620 colon = test system: SW-620 colon
SK-MEL-2 melanoma = test system: SK-MEL-2 melanoma
U251 CNS = test system: U251 CNS
HT29 colon = test system: HT29 colon
MDA-MB-231 breast = test system: MDA-MB-231 breast
OVCAR-3 ovarian = test system: OVCAR-3 ovarian
HCT-116 colon = test system: HCT-116 colon

CCC(=C(c1ccc(OCCN(C)C)cc1)c1ccc(OCCN(C)C)cc1)c1ccc(Cl)cc1 was tested, and the GI50 (EKVX NSCLC) was 3.85 µM, the TGI (EKVX NSCLC) was 7.67 µM and the GI50 (NCI-H23 lung) was 3.65 µM. The TGI (NCI-H23 lung) was 7.26 µM, the GI50 (LOX IMVI melanoma) was 0.43 µM and the TGI (LOX IMVI melanoma) was 0.848 µM. For the same compound, the GI50 (SK-OV-3 ovarian) was 4.26 µM, the TGI (SK-OV-3 ovarian) was 8.08 µM and the GI50 (SF-539 CNS) was 2.75 µM. For the same compound, the TGI (SF-539 CNS) was 6.1 µM, the GI50 (RXF 393 renal) was 0.897 µM and the TGI (RXF 393 renal) was 4.15 µM. The GI50 (CCRF-CEM leukemia) was 0.609 µM, the TGI (CCRF-CEM leukemia) was 1.79 µM and the GI50 (NCI-H226 lung) was 4.12 µM. It also gave a TGI (NCI-H226 lung) of 8.41 µM, a GI50 (SN12C renal) of 3.76 µM and a TGI (SN12C renal) of 7.52 µM. The GI50 (ACHN renal) was 1.31 µM, the TGI (ACHN renal) was 4.33 µM and the GI50 (HCT-15 colon) was 0.77 µM. It also gave a TGI (HCT-15 colon) of 2.67 µM, a GI50 (MCF7 breast) of 0.522 µM and a TGI (MCF7 breast) of 1.67 µM. For the same compound, the GI50 (TK-10 renal) was 4.05 µM, the TGI (TK-10 renal) was 7.75 µM and the GI50 (HOP-92 NSCLC) was 0.736 µM. For the same compound, the TGI (HOP-92 NSCLC) was 4.01 µM, the GI50 (RPMI-8226 leukemia) was 0.598 µM and the TGI (RPMI-8226 leukemia) was 1.46 µM. For the same compound, the GI50 (SNB-19 CNS) was 2.84 µM, the TGI (SNB-19 CNS) was 6.29 µM and the GI50 (PC-3 prostate) was 1.26 µM. It also gave a TGI (PC-3 prostate) of 4.56 µM, a GI50 (SK-MEL-28 melanoma) of 0.462 µM and a TGI (SK-MEL-28 melanoma) of 0.888 µM. The GI50 (NCI-H522 lung) was 1.96 µM, the TGI (NCI-H522 lung) was 5.77 µM and the GI50 (KM12 colon) was 2.54 µM. For the same compound, the TGI (KM12 colon) was 5.67 µM, the GI50 (MDA-MB-435) was 0.575 µM and the TGI (MDA-MB-435) was 1.41 µM. For the same compound, the GI50 (MALME-3M melanoma) was 0.855 µM, the TGI (MALME-3M melanoma) was 3.3 µM and the GI50 (IGROV1 ovarian) was 2.17 µM. For the same compound, the TGI (IGROV1 ovarian) was 5.6 µM, the GI50 (T-47D breast) was 3.17 µM and the TGI (T-47D breast) was 8.03 µM. For the same compound, the GI50 (786-0 renal) was 3.7 µM, the TGI (786-0 renal) was 7.72 µM and the GI50 (DU-145 prostate) was 3.11 µM. The TGI (DU-145 prostate) was 6.67 µM, the GI50 (SR leukemia) was 0.659 µM and the TGI (SR leukemia) was 4.74 µM. For the same compound, the GI50 (BT-549 breast) was 4.29 µM, the TGI (BT-549 breast) was 8.38 µM and the GI50 (MOLT-4 leukemia) was 0.745 µM. For the same compound, the TGI (MOLT-4 leukemia) was 2.41 µM, the GI50 (COLO 205 colon) was 1.14 µM and the TGI (COLO 205 colon) was 4.77 µM. It also gave a GI50 (HOP-62 NSCLC) of 3.67 µM, a TGI (HOP-62 NSCLC) of 7.95 µM and a GI50 (HL-60(TB) leukemia) of 0.522 µM. For the same compound, the TGI (HL-60(TB) leukemia) was 1.23 µM, the GI50 (NCI/ADR-RES ovarian) was 3.22 µM and the TGI (NCI/ADR-RES ovarian) was 6.68 µM. For the same compound, the GI50 (SNB-75 CNS) was 3.32 µM, the TGI (SNB-75 CNS) was 7.53 µM and the GI50 (UO-31 renal) was 3.23 µM. It also gave a TGI (UO-31 renal) of 6.6 µM, a GI50 (SF-295 CNS) of 3.09 µM and a TGI (SF-295 CNS) of 6.49 µM. It also gave a GI50 (HCC-2998 colon) of 2.04 µM, a TGI (HCC-2998 colon) of 5.73 µM and a GI50 (UACC-257 melanoma) of 3.7 µM. It also gave a TGI (UACC-257 melanoma) of 7.39 µM, a GI50 (SK-MEL-5 melanoma) of 3.99 µM and a TGI (SK-MEL-5 melanoma) of 7.49 µM. For the same compound, the GI50 (K-562 leukemia) was 0.541 µM, the TGI (K-562 leukemia) was 1.77 µM and the GI50 (A549 NSCLC) was 2.56 µM. It also gave a TGI (A549 NSCLC) of 6.32 µM, a GI50 (CAKI-1 renal) of 3.17 µM and a TGI (CAKI-1 renal) of 6.48 µM. The GI50 (UACC-62 melanoma) was 0.492 µM, the TGI (UACC-62 melanoma) was 1.12 µM and the GI50 (SF-268 CNS) was 3.54 µM. The TGI (SF-268 CNS) was 7.48 µM, the GI50 (NCI-H460 lung) was 2.67 µM and the TGI (NCI-H460 lung) was 6.03 µM. The GI50 (OVCAR-5 ovarian) was 3.91 µM, the TGI (OVCAR-5 ovarian) was 7.56 µM and the GI50 (HS 578T breast) was 3.48 µM. It also gave a TGI (HS 578T breast) of 7.79 µM, a GI50 (OVCAR-8 ovarian) of 3.21 µM and a TGI (OVCAR-8 ovarian) of 6.96 µM. For the same compound, the GI50 (OVCAR-4 ovarian) was 3.39 µM, the TGI (OVCAR-4 ovarian) was 7.36 µM and the GI50 (A498 renal) was 3.58 µM. It also gave a TGI (A498 renal) of 7.07 µM, a GI50 (SW-620 colon) of 0.549 µM and a TGI (SW-620 colon) of 1.22 µM. For the same compound, the GI50 (SK-MEL-2 melanoma) was 4.48 µM, the TGI (SK-MEL-2 melanoma) was 8.49 µM and the GI50 (U251 CNS) was 0.67 µM. For the same compound, the TGI (U251 CNS) was 2.29 µM, the GI50 (HT29 colon) was 0.427 µM and the TGI (HT29 colon) was 1.11 µM. The GI50 (MDA-MB-231 breast) was 2.42 µM, the TGI (MDA-MB-231 breast) was 5.75 µM and the GI50 (OVCAR-3 ovarian) was 0.804 µM. For the same compound, the TGI (OVCAR-3 ovarian) was 2.74 µM, the GI50 (HCT-116 colon) was 2.58 µM and the TGI (HCT-116 colon) was 6.24 µM.
